The values that follow are results of earlier work, collected in patent US12582584B2, “Oxidizer and acid based system and regimen for enhancing skin appearance” (L'OREAL, priority 2021, dated 2026).

For the series the following is noted: acute oral toxicity, mutagenicity, skin irritation, skin sensitization, phototoxicity.

With `CC(c1ccccc1)c1ccc(O)cc1O` (stereo not shown) [Phenylethyl resorcinol], the “Adverse effects in basic toxicological tests” value was “has not shown adverse effects”.
